In ChEMBL document CHEMBL1201862, “PubChem BioAssay data set” (2004):
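These data come from cells grown in 96-well plates and exposed to compound for 48 hours at five concentrations. Here, GI50 denotes the concentration required for 50% inhibition of growth.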 The source made the active and inactive calls. No stated cut-off is given here; in the data, active = GI50 up to about 1.1 µM and inactive = higher.

Key:
Assay in all cases: DTP human tumour cell line panel, 48 h
[1] = test system: SK-MEL-28
[2] = test system: KM12
[3] = test system: OVCAR-8
[4] = test system: LXFL 529
[5] = test system: SW-620
[6] = test system: RPMI-8226
[7] = test system: NCI-H460
[8] = test system: OVCAR-3
[9] = test system: SNB-19
[10] = test system: IGROV-1
[11] = test system: ACHN
[12] = test system: SK-OV-3
[13] = test system: SF-268
[14] = test system: SF-539
[15] = test system: TK-10
[16] = test system: MCF7
[17] = test system: PC-3
[18] = test system: NCI/ADR-RES
[19] = test system: DU-145
[20] = test system: Hs-578T

SMILES	GI50 [1]	GI50 [2]	GI50 [3]	GI50 [4]	GI50 [5]	GI50 [6]	GI50 [7]	GI50 [8]	GI50 [9]	GI50 [10]	GI50 [11]	GI50 [12]	GI50 [13]	GI50 [14]	GI50 [15]	GI50 [16]	GI50 [17]	GI50 [18]	GI50 [19]	GI50 [20]
O=S(=O)(C/C(=N\O)c1ccccc1)c1ccccc1	> 100 µM (inactive)	> 100 µM (inactive)	> 100 µM (inactive)	> 100 µM (inactive)	> 100 µM (inactive)	> 100 µM (inactive)	> 100 µM (inactive)	> 100 µM (inactive)	> 100 µM (inactive)	> 100 µM (inactive)	> 100 µM (inactive)	> 100 µM (inactive)	> 100 µM (inactive)	> 100 µM (inactive)	> 100 µM (inactive)	–	–	–	–	–
Cn1cc(C(=O)c2ccccc2)cc(C(=O)c2ccccc2)c1=O	> 100 µM (inactive)	> 100 µM (inactive)	> 100 µM (inactive)	> 100 µM (inactive)	> 100 µM (inactive)	> 100 µM (inactive)	> 100 µM (inactive)	> 100 µM (inactive)	> 100 µM (inactive)	> 100 µM (inactive)	> 100 µM (inactive)	> 100 µM (inactive)	> 100 µM (inactive)	> 100 µM (inactive)	> 100 µM (inactive)	–	–	–	–	–
O=C1C2=C(c3ccccc31)C(c1ccc(Cl)cc1)NC(S)=N2 (centres undefined)	17.1 µM (inactive)	23.6 µM (inactive)	20 µM (inactive)	14.8 µM (inactive)	20.5 µM (inactive)	20.3 µM (inactive)	34.8 µM (inactive)	20.1 µM (inactive)	26.3 µM (inactive)	19 µM (inactive)	42.7 µM (inactive)	69.2 µM (inactive)	17.4 µM (inactive)	15.7 µM (inactive)	22.8 µM (inactive)	–	–	–	–	–
COc1cccc(C2CC23C(=O)NC(=O)NC3=O)c1 (centres undefined)	> 100 µM (inactive)	> 100 µM (inactive)	> 100 µM (inactive)	> 100 µM (inactive)	> 100 µM (inactive)	> 100 µM (inactive)	> 100 µM (inactive)	> 100 µM (inactive)	> 100 µM (inactive)	> 100 µM (inactive)	> 100 µM (inactive)	> 100 µM (inactive)	> 100 µM (inactive)	> 100 µM (inactive)	> 100 µM (inactive)	–	–	–	–	–
N#C/N=C(/N)NCN/C(N)=N\C#N	> 100 µM (inactive)	> 100 µM (inactive)	> 100 µM (inactive)	> 100 µM (inactive)	17.4 µM (inactive)	> 100 µM (inactive)	> 100 µM (inactive)	> 100 µM (inactive)	> 100 µM (inactive)	> 100 µM (inactive)	> 100 µM (inactive)	> 100 µM (inactive)	> 100 µM (inactive)	> 100 µM (inactive)	> 100 µM (inactive)	–	–	–	–	–
COC(=O)C(=Cc1cc(OC)c(OC)c(OC)c1-c1cc2c(cc1C1(C)OCCS1)OCO2)C(=O)OC (centres undefined)	33.4 µM (inactive)	19.1 µM (inactive)	31.6 µM (inactive)	24.1 µM (inactive)	33.2 µM (inactive)	28 µM (inactive)	26.6 µM (inactive)	15.2 µM (inactive)	98.9 µM (inactive)	16.3 µM (inactive)	55.3 µM (inactive)	38.3 µM (inactive)	29.5 µM (inactive)	40.6 µM (inactive)	86.9 µM (inactive)	–	–	–	–	–
CC1=C(C(=O)Nc2ccc([N+](=O)[O-])cc2)C(c2ccccc2F)C(C(=O)Nc2ccc([N+](=O)[O-])cc2)=C(C)N1	20.7 µM (inactive)	9.14 µM (inactive)	21.7 µM (inactive)	6.92 µM (inactive)	21.8 µM (inactive)	3.8 µM (inactive)	13.6 µM (inactive)	8.32 µM (inactive)	21.1 µM (inactive)	12.8 µM (inactive)	4.21 µM (inactive)	29.8 µM (inactive)	21.2 µM (inactive)	17.3 µM (inactive)	23.7 µM (inactive)	–	–	–	–	–
C#Cc1c(C)c(/C=C/C(C)=C\C(=O)OC)n(C)c1C	–	99.1 µM (inactive)	70.1 µM (inactive)	94 µM (inactive)	> 100 µM (inactive)	18.8 µM (inactive)	63.7 µM (inactive)	96.2 µM (inactive)	> 100 µM (inactive)	> 100 µM (inactive)	47.8 µM (inactive)	> 100 µM (inactive)	68.5 µM (inactive)	67.5 µM (inactive)	> 100 µM (inactive)	–	–	–	–	–
O=C(c1ccccc1)n1cc(/C=C/[N+](=O)[O-])c2ccccc21	18.5 µM (inactive)	18.5 µM (inactive)	35.6 µM (inactive)	18.5 µM (inactive)	19.6 µM (inactive)	15.7 µM (inactive)	21.9 µM (inactive)	51.8 µM (inactive)	30.7 µM (inactive)	22.6 µM (inactive)	> 100 µM (inactive)	> 100 µM (inactive)	23.1 µM (inactive)	21.4 µM (inactive)	> 100 µM (inactive)	–	–	–	–	–
CC(=O)C1C(=O)C(=O)N(c2ccccc2C(C)C)C1=O (centres undefined)	> 100 µM (inactive)	> 100 µM (inactive)	> 100 µM (inactive)	> 100 µM (inactive)	> 100 µM (inactive)	> 100 µM (inactive)	> 100 µM (inactive)	> 100 µM (inactive)	> 100 µM (inactive)	> 100 µM (inactive)	> 100 µM (inactive)	> 100 µM (inactive)	> 100 µM (inactive)	> 100 µM (inactive)	> 100 µM (inactive)	–	–	–	–	–
C=C(CCCCC)CN1CCCC1C(C)=O (centres undefined)	57.3 µM (inactive)	33 µM (inactive)	28.6 µM (inactive)	27.3 µM (inactive)	> 57.9 µM (inactive)	13.1 µM (inactive)	29 µM (inactive)	27.9 µM (inactive)	> 62.1 µM (inactive)	33.2 µM (inactive)	25.5 µM (inactive)	31.2 µM (inactive)	42.3 µM (inactive)	35.6 µM (inactive)	38.1 µM (inactive)	–	–	–	–	–
CC(C1=CC=C2[C@@H]3CCC4CC(N(C)C)CC[C@]4(C)C3CC[C@]12C)N(C)C=O (some centres undefined)	> 100 µM (inactive)	> 100 µM (inactive)	> 100 µM (inactive)	> 100 µM (inactive)	> 100 µM (inactive)	78.3 µM (inactive)	> 10 µM (inactive)	> 100 µM (inactive)	> 100 µM (inactive)	> 100 µM (inactive)	> 100 µM (inactive)	> 100 µM (inactive)	> 100 µM (inactive)	> 100 µM (inactive)	> 100 µM (inactive)	–	–	–	–	–
COc1ccc(O)cc1 [MEQUINOL]	> 100 µM (inactive)	42.7 µM (inactive)	55.7 µM (inactive)	33.6 µM (inactive)	> 100 µM (inactive)	> 100 µM (inactive)	97.1 µM (inactive)	44.8 µM (inactive)	> 100 µM (inactive)	> 100 µM (inactive)	31.3 µM (inactive)	> 100 µM (inactive)	55 µM (inactive)	47.4 µM (inactive)	> 100 µM (inactive)	–	–	–	–	–
CC1OC(CC(=O)O)CC2=C1C(=O)c1c(O)cccc1C2=O (centres undefined) [NANAOMYCIN]	0.063 µM (active)	1.27 µM (inactive)	0.128 µM (active)	0.0851 µM (active)	0.0361 µM (active)	0.0447 µM (active)	1.74 µM (inactive)	0.0817 µM (active)	1.66 µM (inactive)	0.36 µM (active)	0.229 µM (active)	4 µM (inactive)	0.316 µM (active)	1.04 µM (active)	0.929 µM (active)	142 nM (active)	241 nM (active)	179 nM (active)	1.12 µM (inactive)	142 nM (active)
